Entries after “also recorded” stand apart in the source; their conditions may differ. No end group written: not given here.
Tests used:
[1] = system: human female patients diagnosed with HSDD; assay: Vaginal photoplethysmography (vaginal blood flow) while watching erotic or neutral images; type: in vivo; conditions: single sc injection 6.4 nmol/kg
Experimental: 20 human female patients diagnosed with HSDD receive either a single subcutaneous (sc) injection of kisspeptin-54 (SEQ ID NO: 17) at a dose of 6.4 nmol/kg of body weight or a sc injection of saline (i.e. control). The sexual desire of the patients is measured using vaginal photoplethysmography, which has been used to assess female genital arousal. It consists of a tampon-sized acrylic device containing a light emitting diode and a phototransistor to detect light to measure vaginal blood flow with increased sexual desire leading to increased vaginal blood flow. The sexual desire of the patients is scored starting 15 minutes after administration of sc kisspeptin or saline when watching either erotic images or neutral images. […] Any effects of kisspeptin on sexual desire disappear by 4 h after the injection.

[2] = system: human female patients diagnosed with HSDD; assay: Brain activation by BOLD MRI while watching erotic pictures; type: in vivo; conditions: single sc injection 6.4 nmol/kg; scan 30 minutes after injection; versus saline session
Experimental: 20 human female patients diagnosed with HSDD receive either a single subcutaneous (sc) injection of kisspeptin-54 (SEQ ID NO: 17) at a dose of 6.4 nmol/kg of body weight or a sc injection of a saline (i.e. control). The sexual desire of the patients is measured by determining their brain activation using magnetic resonance imaging (MRI) with the blood-oxygenation-level-dependent (BOLD) technique to identify and quantify brain regions associated with visually evoked sexual arousal in women. All female patients are subjected to two sessions on separate days with at least 1 month in between the sessions to act as their own control. They receive in one session kisspeptin-54 and in the other one saline, the order will be randomized. Female patients are positioned into the MRI scanner 30 minutes after the sc injection and three dimensional images are taken of the brain when watching a series of erotic pictures as well as more neutral pictures to serve as control condition using an event-related design. The task is followed by an anatomical scan in which high resolution T1-weighted images are taken to determine the anatomical boundaries of the activation observed during the visual task.

[3] = system: female mice; assay: Mate preference test (three-compartment box, preference score); type: in vivo, mouse
Experimental: (§1) Unless otherwise stated, females were ovariectomized in adulthood (>8 weeks of age) under general anesthesia after either subcutaneous (sc) injections of ketamine (80 mg kg^−1 per mouse) and medetomidine (Domitor, Pfizer, 1 mg kg^−1 per mouse) or under 5% isoflurane, in order to control for endogenous hormone concentrations and to prevent pregnancies upon repeated testing. At the same time, all females received a 5 mm-long Silastic capsule (inner diameter: 1.57 mm; outer diameter: 2.41 mm) containing crystalline 17β-estradiol (diluted 1:1 with cholesterol) subcutaneously in the neck. The dose of E2 (E8875, Sigma) was based on a previous study^62 showing that this treatment leads to estradiol levels similar to mice in estrus. At the end of surgery, females under ketamine/medetomidine anesthesia received a sc injection of atipamezole (Antisedan, Pfizer, 4 mg kg^−1 per mouse) to antagonize medetomidine-induced effects and accelerate recovery. In order to induce sexual receptivity at the day of testing, all females received a subcutaneous injection with progesterone (500 μg, P0130, Sigma) 3 h before the onset of the behavioral test, unless stated otherwise (for overview of all the different hormone treatments, see Table 1).
(§2) Kisspeptin-10 (Kp-10) was synthesized in Strasbourg, France (Sequence: Tyr-Asn-Trp-Asn-Ser-Phe-Gly-Leu-Arg-Tyr-NH2, NeoMPS; weight=25.7 mg). To determine whether kisspeptin stimulated female sexual behavior in wildtype C57BL/6J mice, females received a sc injection of Kp-10 at the dose of 0.52 μg kg^−1 (injection volume 100 μl) 2h before the lordosis test. Each animal was used as its own control, i.e. the animal was injected one day with Kp-10 and the other day with saline. Females were not injected with progesterone in this particular experiment. Injections were separated by at least 3 days.
Two hours before mate preference test, female mice received a single sc injection of GnRH (0.025 mg kg^−1, Polypeptide Laboratories France SAS, SC087).
S-nitroso-N-acetyl-DL-Penicillamine (SNAP) (N398-Sigma) is a NO donor. […]
To assess mate preferences shown in response to auditory and olfactory stimuli, we used a box (60 cm long×30 cm high×13 cm wide) that was divided into three compartments using perforated opaque partitions. […] The time the subject spent poking her nose through the holes of the partition or actively sniffing the bottom of the partition in front of the female versus male stimulus animal was recorded. A preference score was calculated by dividing the time spent investigating the male compartment minus the time spent investigating the female compartment by the total time spent investigating both compartments. […]

[4] = system: female mice; assay: Lordosis test without photostimulation (lordosis quotient); type: in vivo, mouse
Experimental: as §1, with “1). […]” for “1).”
as §2, with “days. […]” for “days.”
Females were subjected to weekly lordosis tests in a Plexiglas aquarium (37 cm long×17 cm high×21 cm wide). A sexually experienced male was placed alone in the aquarium and allowed to adapt for 15 min. Subsequently, 3 h after receiving a subcutaneous progesterone injection (500 μg, P0130, Sigma) to induce behavioral estrus, the lordosis responses of the female to the mounts of the stimulus male were recorded. The test lasted until the female received 10 mounts or 10 min had elapsed. For the first experiment (mating-induced Fos activation) ovary intact females were paired with males during 30 minutes. […] Before each experimental condition (drug injection, cell ablation, optogenetic stimulation), all females were subjected to at least three lordosis tests (with progesterone) in order to acquire sufficient sexual experience and thus a significant LQ. Tests were performed during the dark phase of the light cycle (5 h after lights out; for details, see^67). For all details on the different hormone treatments (estradiol versus estradiol+progesterone), see Table 1.

## kisspeptin-54: human kisspeptin-54, SEQ ID NO: 17, amino acids 68 to 121 of NP_002247.3 (GTSLSPPPESSGSPQQPGLSAPHSRQIPAPQGAVLVQREKDLPNYNWNSFGLRF; listed as Homo sapiens)
[1]
  time by which effects on sexual desire disappear after the injection: ≤ 4 h
[1]; scored from 15 minutes after administration
  vaginal blood flow when watching neutral images: not when watching neutral images
[1]; scored from 15 minutes after administration, versus saline
  vaginal blood flow when watching erotic images: show increased vaginal blood flow
[2]
  brain activation when watching the images (BOLD MRI): show increased brain activation

## Tyr-Asn-Trp-Asn-Ser-Phe-Gly-Leu-Arg-Tyr-NH2 (YNWNSFGLRY-NH2) [Kp-10, Kisspeptin-10 synthesized in Strasbourg (NeoMPS), the decapeptide injected in mice]
[3]; GnRH::Cre, Dicer loxP/loxP females (OVX+E+P), sc injection, P=0.38, FIG. 9a
  male-directed preference (preference score): failed to elicit a male-directed preference
[3]; Kiss-/- (OVX+E+P) females, single sc injection 0.52 μg kg^-1, P<0.001, FIG. 1b
  male-directed preference (preference score): induced a very strong preference for the male; also recorded: triggered a male-directed preference
[3]; KissIC Cre+ females (OVX+E+P) after AAV-Casp3 ablation of RP3V kisspeptin neurons, single sc injection, P=0.041, FIG. 1e
  male-directed preference (preference score): induced a male-directed preference; also recorded: sufficient to induce a male-directed preference
[4]; Kiss-/- (OVX+E+P) females with lordosis deficits, single sc injection, FIG. 4d
  lordosis behavior: induced lordosis behavior; also recorded: could be reversed
[4]; WT C57BL/6J OVX+E females (no progesterone), sc 0.52 μg/kg 2 h before test, P<0.001, FIG. 4b
  lordosis behavior: robustly stimulated lordosis behavior
[4]; WT C57Bl6 (OVX+E+P) females, intracerebroventricular 10.4 ng/kg 1 h before test, P=0.012, FIG. 6
  lordosis behavior: stimulates lordosis behavior; also recorded: also stimulated lordosis behavior
[4]; nNOS-/- (OVX+E+P) females, sc injection, P=0.56, FIG. 11c
  lordosis behavior: failed to restore lordosis behavior
[4]; nNOS-/- (OVX+E+P) females, sc injection, P=0.56, FIG. 11c, listed as KP-10
  lordosis behavior: failed to stimulate lordosis behavior

## GnRH: GnRH from Polypeptide Laboratories France SAS, SC087 (QHWSYGLRPG; Gonadoliberin-1; UniProt P01148 24-33, looked up) [reference compound]
[3]; GnRH::Cre, Dicer loxP/loxP females (OVX+E), single sc injection 0.025 mg kg^-1, P=0.01, FIG. 9a
  male-directed preference (preference score): induced a male-directed preference; also recorded: restored this behavior
[4]; Kiss-/- (OVX+E) females, single injection, P=0.65, FIG. 9c
  lordosis behavior: failed to stimulate lordosis behavior
[4]; nNOS-/- (OVX+E) females, sc injection, P=0.19, FIG. 11c
  lordosis behavior: failed to restore lordosis behavior; also recorded: failed to stimulate lordosis behavior

From patent US20220040253A1, “Agonists of Human Kisspeptin Receptor for Modulating Sexual Desire” (Université de Liège, priority 2019, published 2022)
